Laboratory results from patent publication US9290451B2 (Hoffmann-La Roche Inc., priority 2011, dated 2016).

Tests used:
[1] = target: human CB2 receptors (Homo sapiens (Human), UniProt P34972); test: cAMP assay, CHO cells expressing human CB2 receptors; format: cell-based; details: CHO cells expressing human CB2, cAMP; read-out: human CB2 EC50
In short: (§1)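 Agonist EC50 values come from cAMP levels measured in intact CHO cells. Compounds act for 30 min at 30 °C in the presence of 1 mM IBMX, and cAMP is then detected by time-resolved energy transfer after lysis.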

[2] = target: human CB1 receptors (Homo sapiens (Human), UniProt P21554); test: cAMP assay, CHO cells expressing human CB1 receptors; format: cell-based; details: CHO cells expressing human CB1, cAMP; read-out: human CB1 EC50
Chain of human CB1 receptors (P21554 whole entry): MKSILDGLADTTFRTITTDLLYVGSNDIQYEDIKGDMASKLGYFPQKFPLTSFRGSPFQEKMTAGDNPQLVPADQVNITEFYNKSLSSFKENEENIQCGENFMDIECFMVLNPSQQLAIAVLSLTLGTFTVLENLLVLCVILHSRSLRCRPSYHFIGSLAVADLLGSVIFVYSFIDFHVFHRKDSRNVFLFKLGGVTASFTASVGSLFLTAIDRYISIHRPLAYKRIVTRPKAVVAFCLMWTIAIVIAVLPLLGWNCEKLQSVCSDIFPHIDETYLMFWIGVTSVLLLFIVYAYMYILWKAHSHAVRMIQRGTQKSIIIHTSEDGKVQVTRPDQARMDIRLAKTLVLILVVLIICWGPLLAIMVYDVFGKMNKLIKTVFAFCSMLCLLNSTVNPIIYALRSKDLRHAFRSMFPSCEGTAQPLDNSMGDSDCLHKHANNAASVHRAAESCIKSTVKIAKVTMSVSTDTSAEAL
In short: as §1

Chain of human CB2 receptors (P34972 whole entry): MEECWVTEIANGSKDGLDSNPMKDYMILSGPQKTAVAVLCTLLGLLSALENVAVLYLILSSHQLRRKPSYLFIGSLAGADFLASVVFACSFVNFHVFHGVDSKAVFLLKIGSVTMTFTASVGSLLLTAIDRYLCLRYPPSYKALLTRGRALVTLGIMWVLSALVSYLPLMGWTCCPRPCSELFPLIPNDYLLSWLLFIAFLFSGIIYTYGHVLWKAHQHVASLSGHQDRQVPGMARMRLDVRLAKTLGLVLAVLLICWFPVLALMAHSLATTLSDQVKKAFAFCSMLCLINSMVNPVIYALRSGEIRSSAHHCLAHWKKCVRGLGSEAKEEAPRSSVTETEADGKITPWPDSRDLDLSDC

SMILES	EC50 [1] [nM]	EC50 [2] [µM]
CCC(CC)(NC(=O)c1ccc(N(CC(F)(F)F)CC(F)(F)F)c(OCC2CC2)n1)C(=O)OC [Example 220, 2-({5-[Bis-(2,2,2-trifluoro-ethyl)-amino]-6-cyclopropylmethoxy-pyridine-2-carbonyl}-amino)-2-ethyl-butyric acid methyl ester]	1.6	0.129
Cc1nc(C2(NC(=O)c3ccc(C4CC4)c(OCc4ccccn4)n3)CCC2)no1 [Example 189, 5-Cyclopropyl-N-(1-(5-methyl-1,2,4-oxadiazol-3-yl)cyclobutyl)-6-(pyridin-2-ylmethoxy)picolinamide]	381	> 10
CC(C)C[C@H](NC(=O)c1cccc(C(O)c2ccc(F)cc2)n1)C(N)=O (stereo partly drawn) [Example 317, 6-[(4-Fluoro-phenyl)-hydroxy-methyl]-pyridine-2-carboxylic acid ((S)-1-carbamoyl-3-methyl-butyl)-amide]	24.2	> 10
CCC(CC)(NC(=O)c1ccc(Cl)c(OCC2CC2)n1)C(=O)NC [Example 109, 5-Chloro-6-cyclopropylmethoxy-pyridine-2-carboxylic acid (1-ethyl-1-methylcarbamoyl-propyl)-amide]	178	> 10
NC(=O)[C@@H](NC(=O)c1ccc(C2CC2)c(OCC2CC2)n1)c1ccc(F)cc1 [Example 328, 5-Cyclopropyl-6-cyclopropylmethoxy-pyridine-2-carboxylic acid [(S)-carbamoyl-(4-fluoro-phenyl)-methyl]-amide]	3.9	> 10
CC(C)C[C@H](NC(=O)c1ccc(N2CC(F)(F)C2)c(OCC2CC2)n1)C(=O)N1CC(F)(F)C1 [Example 311, 6-Cyclopropylmethoxy-5-(3,3-difluoro-azetidin-1-yl)-pyridine-2-carboxylic acid [(S)-1-(3,3-difluoro-azetidine-1-carbonyl)-3-methyl-butyl]-amide]	8.4	> 10
Cc1nsc(C(C)(C)NC(=O)c2cccc(-c3cccc(Cl)c3)n2)n1 [Example 22, 6-(3-Chloro-phenyl)-pyridine-2-carboxylic acid [1-methyl-1-(3-methyl-[1,2,4]thiadiazol-5-yl)-ethyl]-amide]	635	> 10
CNC(=O)C(C)(C)NC(=O)c1ccc(C)c(OCC2CC2)n1 [Example 36, 6-Cyclopropylmethoxy-5-methyl-pyridine-2-carboxylic acid (1-methyl-1-methylcarbamoyl-ethyl)-amide]	974	> 10
CC(C)(C#N)NC(=O)c1ccc(C2CC2)c(OCC2CC2)n1 [Example 167, N-(2-Cyanopropan-2-yl)-5-cyclopropyl-6-(cyclopropylmethoxy)picolinamide]	206	> 10
CNC(=O)[C@H](CC(C)C)NC(=O)c1cccc(-c2cccc(F)c2)n1 [Example 210, (S)-6-(3-Fluorophenyl)-N-(4-methyl-1-(methylamino)-1-oxopentan-2-yl)picolinamide]	62	> 10
CC(C)C[C@H](NC(=O)c1ccc(C2CC2)c(Cc2ccc(F)cc2)n1)C(N)=O [Example 155, 5-Cyclopropyl-6-(4-fluoro-benzyl)-pyridine-2-carboxylic acid ((S)-1-carbamoyl-3-methyl-butyl)-amide]	0.7	0.123
CC1(COc2nc(C(=O)NC3(c4nccs4)COC3)ccc2Br)COC1 [Example 281, 5-Bromo-6-(3-methyl-oxetan-3-ylmethoxy)-pyridine-2-carboxylic acid (3-thiazol-2-yl-oxetan-3-yl)-amide]	447	> 10
CCOC(=O)C(CC)(CC)NC(=O)c1ccc(C2CC2)c(S(=O)(=O)CC(C)C)n1 [Example 360, 2-{[5-Cyclopropyl-6-(2-methyl-propane-1-sulfonyl)-pyridine-2-carbonyl]-amino}-2-ethyl-butyric acid ethyl ester]	2.4	0.0885
Cc1nc(C(C)(C)NC(=O)c2ccc(C3CC3)c(OC(C)C(F)(F)F)n2)no1 (centres unmarked) [Example 373, 5-Cyclopropyl-6-(2,2,2-trifluoro-1-methyl-ethoxy)-pyridine-2-carboxylic acid [1-methyl-1-(5-methyl-[1,2,4]oxadiazol-3-yl)-ethyl]-amide]	127	> 10
O=C(NC1CCCCC1O)c1ccc(N2CC(F)(F)C2)c(OCC2CC2)n1 (centres unmarked) [Example 137, 6-Cyclopropylmethoxy-5-(3,3-difluoro-azetidin-1-yl)-pyridine-2-carboxylic acid (2-hydroxy-cyclohexyl)-amide]	211	> 10
CCC(CC)(NC(=O)c1ccc(C(F)(F)F)c(OCC2CCOCC2)n1)C(=O)NC [Example 253, 6-(Tetrahydro-pyran-4-ylmethoxy)-5-trifluoromethyl-pyridine-2-carboxylic acid (1-ethyl-1-methylcarbamoyl-propyl)-amide]	14.3	> 10

SMILES	EC50 [1] [nM]	EC50 [2] [µM]
O=C(N[C@@H](c1ccccn1)C(F)(F)F)c1ccc(C2CC2)c(OCC2CC2)n1 [Example 240, 5-Cyclopropyl-6-cyclopropylmethoxy-pyridine-2-carboxylic acid ((−)-2,2,2-trifluoro-1-pyridin-2-yl-ethyl)-amide]	66.1	> 10
Cc1nc(C(C)(C)NC(=O)c2ccc(Cl)c(OCC3CC3)n2)no1 [Example 108, 5-Chloro-6-cyclopropylmethoxy-pyridine-2-carboxylic acid [1-methyl-1-(5-methyl-[1,2,4]oxadiazol-3-yl)-ethyl]-amide]	190	> 10
CNC(=O)[C@@H](NC(=O)c1ccc(C2CC2)c(OCC2CCOCC2)n1)C(C)(C)C [Example 195, (S)-5-Cyclopropyl-N-(3,3-dimethyl-1-(methylamino)-1-oxobutan-2-yl)-6-((tetrahydro-2H-pyran-4-yl)methoxy)picolinamide]	1.4	0.206
CC(C)(NC(=O)c1ccc(N2CC(F)(F)C2)c(-c2cccc(Cl)c2)n1)c1nccs1 [Example 156, 6-(3-Chloro-phenyl)-5-(3,3-difluoro-azetidin-1-yl)-pyridine-2-carboxylic acid (1-methyl-1-thiazol-2-yl-ethyl)-amide]	334	> 10
O=C(N[C@H](c1cccnc1)C(F)(F)F)c1ccc(N2CC(F)(F)C2)c(OCC2CC2)n1 [Example 237, 6-Cyclopropylmethoxy-5-(3,3-difluoro-azetidin-1-yl)-pyridine-2-carboxylic acid ((R)-2,2,2-trifluoro-1-pyridin-3-yl-ethyl)-amide]	97.5	> 10
CNC(=O)[C@@H](NC(=O)c1ccc(N2CC(F)(F)C2)c(OCC2CCCO2)n1)C(C)(C)C (stereo partly drawn) [Example 206, 5-(3,3-Difluoroazetidin-1-yl)-N-((S)-3,3-dimethyl-1-(methylamino)-1-oxobutan-2-yl)-6-((tetrahydrofuran-2-yl)methoxy)picolinamide]	25	> 10
CC(C)C[C@H](NC(=O)c1ccc(N2CCCC2C)c(OCC2CC2)n1)C(N)=O (stereo partly drawn) [Example 32, 6-Cyclopropylmethoxy-5-(2-methyl-pyrrolidin-1-yl)-pyridine-2-carboxylic acid ((S)-1-carbamoyl-3-methyl-butyl)-amide]	1.55	1.39
CCC(CC)(NC(=O)c1cccc(OCC(F)(F)C(F)(F)F)n1)C(=O)NC [Example 297, 6-(2,2,3,3,3-Pentafluoro-propoxy)-pyridine-2-carboxylic acid (1-ethyl-1-methylcarbamoyl-propyl)-amide]	962	> 10
COc1ccc(C(=O)NC(C)(C)c2nccs2)nc1-c1cccc(Cl)c1 [Example 82, 6-(3-Chloro-phenyl)-5-methoxy-pyridine-2-carboxylic acid (1-methyl-1-thiazol-2-yl-ethyl)-amide]	140	2.29
CC(C)(C)NC(=O)c1ccc(C2CC2)c(OCC2CC2)n1 [Example 368, 5-Cyclopropyl-6-cyclopropylmethoxy-pyridine-2-carboxylic acid tert-butylamide]	26.3	> 10
CCC(CC)(NC(=O)c1ccc(C2CC2)c(OCC(F)(F)C(F)(F)F)n1)C(=O)NC [Example 298, 5-Cyclopropyl-6-(2,2,3,3,3-pentafluoro-propoxy)-pyridine-2-carboxylic acid (1-ethyl-1-methylcarbamoyl-propyl)-amide]	14.2	> 10
CC(C)C[C@@H](CNc1ccc([N+](=O)[O-])c2nonc12)NC(=O)c1ccc(N2CCCC2)c(OCC2CC2)n1 [Example 344, 6-Cyclopropylmethoxy-5-pyrrolidin-1-yl-pyridine-2-carboxylic acid {(S)-3-methyl-1-[(7-nitro-benzo[1,2,5]oxadiazol-4-ylamino)-methyl]-butyl}-amide]	25.6	> 10
CCC(CC)(NC(=O)c1ccc(N2CCC(F)(F)C2)c(OCC2CC2)n1)C(=O)NC [Example 78, 6-Cyclopropylmethoxy-5-(3,3-difluoro-pyrrolidin-1-yl)-pyridine-2-carboxylic acid (1-ethyl-1-methylcarbamoyl-propyl)-amide]	4.6	> 10
Cc1nc(C(C)(NC(=O)c2ccc(N3CC(F)(F)C3)c(OCC3CC3)n2)C2CC2)no1 (centres unmarked) [Example 340, 6-Cyclopropylmethoxy-5-(3,3-difluoro-azetidin-1-yl)-pyridine-2-carboxylic acid [1-cyclopropyl-1-(5-methyl-[1,2,4]oxadiazol-3-yl)-ethyl]-amide]	5.7	> 10
CCC(CC)(NC(=O)c1ccc(C(F)(F)F)c(OCC2CCOCC2)n1)C(=O)N(C)C [Example 262, 6-(Tetrahydro-pyran-4-ylmethoxy)-5-trifluoromethyl-pyridine-2-carboxylic acid (1-dimethylcarbamoyl-1-ethyl-propyl)-amide]	74.8	> 10
